{"source": "patent US10760110B2", "about": "“Antibiotic testing and screening system” (priority 2017, dated 2020)", "conditions_in_all_cases": "Klebsiella pneumoniae", "key": {"[1]": {"test_system": "K. pneumoniae NVT1001 and its ΔompK35/36 and/or ΔramR mutants", "assay": "Etest MIC, OmpK35/36 loss and AcrAB-TolC overexpression (ΔramR) strains (Table 6)", "format": "cell-based, Klebsiella pneumoniae", "outline": "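MICs were read by Etest strip following the manufacturer's instructions, and values falling between standard two-fold dilutions were rounded up to the next two-fold step. Ceftazidime and cefotaxime were also tested by CLSI broth microdilution and interpreted against CLSI 2017 breakpoints; cephalothin used CLSI 2015 and moxifloxacin EUCAST 2017.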"}, "[2]": {"test_system": "K. pneumoniae NVT1001 strains with carbapenemase plasmids", "assay": "Etest MIC of β-lactams, OmpK35/36 loss, ΔramR and/or carbapenemase (Table 9)", "format": "cell-based, Klebsiella pneumoniae", "experimental": "DNA fragments of the resistance genes along with their flanking regions were amplified from clinical plasmids via PCR with specific primer pairs. The resulting PCR fragments were digested and then cloned into the plasmid pACYC177 or pACYC184. The resulting plasmids were then transformed into K. pneumoniae strain NVT1001 via electroporation. The recombinant bacteria were plated onto LB agar plates containing kanamycin (50 mg/L) or chloramphenicol (50 mg/L), and the presence of the cloned gene was confirmed via PCR and DNA sequencing.\nThe MICs of antibiotics were determined using the Etest (Biodisk AB, Sweden) according to the manufacturer's instructions. The MICs from the Etest, which fall between standard two-fold dilutions, were rounded up to the next highest two-fold value. The MICs of ceftazidime and cefotaxime against K. pneumoniae NVT1001 harbouring the pACYC177 plasmid with blaOXA-48 were further determined using a broth microdilution test according to the recommendations of the CLSI,^25 and the results were interpreted according to the breakpoints established by the CLSI in 2017.^25 Meanwhile, due to the lack of CLSI breakpoints in 2016 and 2017, the results for cephalothin were interpreted according to the breakpoints established by the CLSI in 2015,^26 and the results for moxifloxacin were interpreted according to the breakpoints established by the EUCAST in 2017.^27"}, "[3]": {"test_system": "K. pneumoniae NVT1001 ΔramRΔompK35/36 mutant and its revertants", "assay": "Etest MIC, ΔramRΔompK35/36 mutant and its revertants (Table 7)", "format": "cell-based"}}, "note": "Read-outs that look alike come from different tables or passages of the source.", "data": [{"molecule": "CO/N=C(\\C(=O)N[C@@H]1C(=O)N2C(C(=O)[O-])=C(C[N+]3(C)CCCC3)CS[C@H]12)c1csc(N)n1", "note": "[Cefepime]", "values": [{"measurement": "MIC", "setting": "[1]; WT, NVT1001, read-out: MIC", "result": 0.06, "unit": "µg/mL"}, {"measurement": "MIC", "setting": "[1]; Δ35, ΔompK35 mutant", "result": 0.125, "unit": "µg/mL"}, {"measurement": "MIC", "setting": "[1]; Δ35/36, ΔompK35/36 mutant", "result": 1, "unit": "µg/mL"}, {"measurement": "MIC", "setting": "[1]; Δ36, ΔompK36 mutant", "result": 0.125, "unit": "µg/mL"}, {"measurement": "MIC", "setting": "[1]; ΔramR mutant", "result": 0.5, "unit": "µg/mL"}, {"measurement": "MIC", "setting": "[1]; ΔramRΔ35, ΔramRΔompK35 mutant", "result": 0.5, "unit": "µg/mL"}, {"measurement": "MIC", "setting": "[1]; ΔramRΔ35/36, ΔramRΔompK35/36 mutant", "result": 2, "unit": "µg/mL"}, {"measurement": "MIC", "setting": "[1]; ΔramRΔ36, ΔramRΔompK36 mutant", "result": 4, "unit": "µg/mL"}, {"measurement": "MIC", "setting": "[2]; IMP-8 on pACYC177, WT (NVT1001), read-out: MIC", "result": 16, "unit": "µg/mL"}, {"measurement": "MIC", "setting": "[2]; IMP-8 on pACYC177, Δ35 (ΔompK35 mutant)", "result": 32, "unit": "µg/mL"}, {"measurement": "MIC", "setting": "[2]; IMP-8 on pACYC177, Δ35/36 (ΔompK35/36 mutant)", "result": "> 256", "unit": "µg/mL"}, {"measurement": "MIC", "setting": "[2]; IMP-8 on pACYC177, Δ36 (ΔompK36 mutant)", "result": 64, "unit": "µg/mL"}, {"measurement": "MIC", "setting": "[2]; IMP-8 on pACYC177, ΔramR mutant", "result": 32, "unit": "µg/mL"}, {"measurement": "MIC", "setting": "[2]; IMP-8 on pACYC177, ΔramRΔ35 (ΔramRΔompK35 mutant)", "result": 64, "unit": "µg/mL"}, {"measurement": "MIC", "setting": "[2]; IMP-8 on pACYC177, ΔramRΔ35/36 (ΔramRΔompK35/36 mutant)", "result": 128, "unit": "µg/mL"}, {"measurement": "MIC", "setting": "[2]; IMP-8 on pACYC177, ΔramRΔ36 (ΔramRΔompK36 mutant)", "result": 128, "unit": "µg/mL"}, {"measurement": "MIC", "setting": "[2]; KPC-2 on pACYC177, WT (NVT1001), read-out: MIC", "result": 64, "unit": "µg/mL"}, {"measurement": "MIC", "setting": "[2]; KPC-2 on pACYC177, Δ35 (ΔompK35 mutant)", "result": 64, "unit": "µg/mL"}, {"measurement": "MIC", "setting": "[2]; KPC-2 on pACYC177, Δ35/36 (ΔompK35/36 mutant)", "result": "> 256", "unit": "µg/mL"}, {"measurement": "MIC", "setting": "[2]; KPC-2 on pACYC177, Δ36 (ΔompK36 mutant)", "result": 64, "unit": "µg/mL"}, {"measurement": "MIC", "setting": "[2]; KPC-2 on pACYC177, ΔramR mutant", "result": 64, "unit": "µg/mL"}, {"measurement": "MIC", "setting": "[2]; KPC-2 on pACYC177, ΔramRΔ35 (ΔramRΔompK35 mutant)", "result": 64, "unit": "µg/mL"}, {"measurement": "MIC", "setting": "[2]; KPC-2 on pACYC177, ΔramRΔ35/36 (ΔramRΔompK35/36 mutant)", "result": "> 256", "unit": "µg/mL"}, {"measurement": "MIC", "setting": "[2]; KPC-2 on pACYC177, ΔramRΔ36 (ΔramRΔompK36 mutant)", "result": "> 256", "unit": "µg/mL"}, {"measurement": "MIC", "setting": "[2]; KPC-3 on pACYC177, WT (NVT1001), read-out: MIC", "result": 128, "unit": "µg/mL"}, {"measurement": "MIC", "setting": "[2]; KPC-3 on pACYC177, Δ35 (ΔompK35 mutant)", "result": 128, "unit": "µg/mL"}, {"measurement": "MIC", "setting": "[2]; KPC-3 on pACYC177, Δ35/36 (ΔompK35/36 mutant)", "result": "> 256", "unit": "µg/mL"}, {"measurement": "MIC", "setting": "[2]; KPC-3 on pACYC177, Δ36 (ΔompK36 mutant)", "result": 256, "unit": "µg/mL"}, {"measurement": "MIC", "setting": "[2]; KPC-3 on pACYC177, ΔramR mutant", "result": 128, "unit": "µg/mL"}, {"measurement": "MIC", "setting": "[2]; KPC-3 on pACYC177, ΔramRΔ35 (ΔramRΔompK35 mutant)", "result": 128, "unit": "µg/mL"}, {"measurement": "MIC", "setting": "[2]; KPC-3 on pACYC177, ΔramRΔ35/36 (ΔramRΔompK35/36 mutant)", "result": "> 256", "unit": "µg/mL"}, {"measurement": "MIC", "setting": "[2]; KPC-3 on pACYC177, ΔramRΔ36 (ΔramRΔompK36 mutant)", "result": "> 256", "unit": "µg/mL"}, {"measurement": "MIC", "setting": "[2]; NDM-1 on pACYC177, WT (NVT1001), read-out: MIC", "result": 32, "unit": "µg/mL"}, {"measurement": "MIC", "setting": "[2]; NDM-1 on pACYC177, Δ35 (ΔompK35 mutant)", "result": 128, "unit": "µg/mL"}, {"measurement": "MIC", "setting": "[2]; NDM-1 on pACYC177, Δ35/36 (ΔompK35/36 mutant)", "result": "> 256", "unit": "µg/mL"}, {"measurement": "MIC", "setting": "[2]; NDM-1 on pACYC177, Δ36 (ΔompK36 mutant)", "result": "> 256", "unit": "µg/mL"}, {"measurement": "MIC", "setting": "[2]; NDM-1 on pACYC177, ΔramR mutant", "result": "> 256", "unit": "µg/mL"}, {"measurement": "MIC", "setting": "[2]; NDM-1 on pACYC177, ΔramRΔ35 (ΔramRΔompK35 mutant)", "result": 256, "unit": "µg/mL"}, {"measurement": "MIC", "setting": "[2]; NDM-1 on pACYC177, ΔramRΔ35/36 (ΔramRΔompK35/36 mutant)", "result": "> 256", "unit": "µg/mL"}, {"measurement": "MIC", "setting": "[2]; NDM-1 on pACYC177, ΔramRΔ36 (ΔramRΔompK36 mutant)", "result": "> 256", "unit": "µg/mL"}, {"measurement": "MIC", "setting": "[2]; OXA-48 on pACYC177, WT (NVT1001), read-out: MIC", "result": 0.5, "unit": "µg/mL"}, {"measurement": "MIC", "setting": "[2]; OXA-48 on pACYC177, Δ35 (ΔompK35 mutant)", "result": 1, "unit": "µg/mL"}, {"measurement": "MIC", "setting": "[2]; OXA-48 on pACYC177, Δ35/36 (ΔompK35/36 mutant)", "result": 8, "unit": "µg/mL"}, {"measurement": "MIC", "setting": "[2]; OXA-48 on pACYC177, Δ36 (ΔompK36 mutant)", "result": 1, "unit": "µg/mL"}, {"measurement": "MIC", "setting": "[2]; OXA-48 on pACYC177, ΔramR mutant", "result": 1, "unit": "µg/mL"}, {"measurement": "MIC", "setting": "[2]; OXA-48 on pACYC177, ΔramRΔ35 (ΔramRΔompK35 mutant)", "result": 1, "unit": "µg/mL"}, {"measurement": "MIC", "setting": "[2]; OXA-48 on pACYC177, ΔramRΔ35/36 (ΔramRΔompK35/36 mutant)", "result": 8, "unit": "µg/mL"}, {"measurement": "MIC", "setting": "[2]; OXA-48 on pACYC177, ΔramRΔ36 (ΔramRΔompK36 mutant)", "result": 8, "unit": "µg/mL"}, {"measurement": "MIC", "setting": "[2]; VIM-1 on pACYC177, WT (NVT1001), read-out: MIC", "result": 128, "unit": "µg/mL"}, {"measurement": "MIC", "setting": "[2]; VIM-1 on pACYC177, Δ35 (ΔompK35 mutant)", "result": 256, "unit": "µg/mL"}, {"measurement": "MIC", "setting": "[2]; VIM-1 on pACYC177, Δ35/36 (ΔompK35/36 mutant)", "result": "> 256", "unit": "µg/mL"}, {"measurement": "MIC", "setting": "[2]; VIM-1 on pACYC177, Δ36 (ΔompK36 mutant)", "result": "> 256", "unit": "µg/mL"}, {"measurement": "MIC", "setting": "[2]; VIM-1 on pACYC177, ΔramR mutant", "result": "> 256", "unit": "µg/mL"}, {"measurement": "MIC", "setting": "[2]; VIM-1 on pACYC177, ΔramRΔ35 (ΔramRΔompK35 mutant)", "result": "> 256", "unit": "µg/mL"}, {"measurement": "MIC", "setting": "[2]; VIM-1 on pACYC177, ΔramRΔ35/36 (ΔramRΔompK35/36 mutant)", "result": "> 256", "unit": "µg/mL"}, {"measurement": "MIC", "setting": "[2]; VIM-1 on pACYC177, ΔramRΔ36 (ΔramRΔompK36 mutant)", "result": "> 256", "unit": "µg/mL"}, {"measurement": "MIC", "setting": "[2]; no supplemental plasmid, WT (NVT1001), read-out: MIC", "result": 0.06, "unit": "µg/mL"}, {"measurement": "MIC", "setting": "[2]; no supplemental plasmid, Δ35 (ΔompK35 mutant)", "result": 0.125, "unit": "µg/mL"}, {"measurement": "MIC", "setting": "[2]; no supplemental plasmid, Δ35/36 (ΔompK35/36 mutant)", "result": 1, "unit": "µg/mL"}, {"measurement": "MIC", "setting": "[2]; no supplemental plasmid, Δ36 (ΔompK36 mutant)", "result": 0.125, "unit": "µg/mL"}, {"measurement": "MIC", "setting": "[2]; no supplemental plasmid, ΔramR mutant", "result": 0.5, "unit": "µg/mL"}, {"measurement": "MIC", "setting": "[2]; no supplemental plasmid, ΔramRΔ35 (ΔramRΔompK35 mutant)", "result": 0.5, "unit": "µg/mL"}, {"measurement": "MIC", "setting": "[2]; no supplemental plasmid, ΔramRΔ35/36 (ΔramRΔompK35/36 mutant)", "result": 2, "unit": "µg/mL"}, {"measurement": "MIC", "setting": "[2]; no supplemental plasmid, ΔramRΔ36 (ΔramRΔompK36 mutant)", "result": 4, "unit": "µg/mL"}, {"measurement": "MIC", "setting": "[3]; ΔramRΔompK35/36::ompK35/36 revertant", "result": 0.5, "unit": "µg/mL"}, {"measurement": "MIC", "setting": "[3]; ΔramRΔompK35/36::ompK35 revertant", "result": 2, "unit": "µg/mL"}, {"measurement": "MIC", "setting": "[3]; ΔramRΔompK35/36::ompK36 revertant", "result": 0.5, "unit": "µg/mL"}, {"measurement": "MIC", "setting": "[3]; ΔramRΔompK35/36::ramR revertant", "result": 1, "unit": "µg/mL"}, {"measurement": "MIC", "setting": "[3]; ΔramRΔompK35/36::ramR::ompK35/36 revertant", "result": 0.06, "unit": "µg/mL"}, {"measurement": "MIC", "setting": "[3]; ΔramRΔompK35/36::ramR::ompK35 revertant", "result": 0.125, "unit": "µg/mL"}, {"measurement": "MIC", "setting": "[3]; ΔramRΔompK35/36::ramR::ompK36 revertant", "result": 0.125, "unit": "µg/mL"}, {"measurement": "MIC", "setting": "[3]; ΔramRΔompK35/36 mutant", "result": 2, "unit": "µg/mL"}]}]}
